Reference: patent US20210070748A1, “INHIBITORS OF BRUTONS TYROSINE KINASE” (Pharmacyclics LLC, priority 2015, published 2021)

How the values were obtained:
Assay type in all cases: biochemical
JAK3 = biological target: T1, JAK3 (Homo sapiens, UniProt P52333); experiment: Inhibition of a panel of kinases, in vitro HotSpot kinase assay: JAK3; conditions: D-compounds panel data; 1 μM ATP; read-out: IC50 JAK3
T1 sequence (P52333 1-1124): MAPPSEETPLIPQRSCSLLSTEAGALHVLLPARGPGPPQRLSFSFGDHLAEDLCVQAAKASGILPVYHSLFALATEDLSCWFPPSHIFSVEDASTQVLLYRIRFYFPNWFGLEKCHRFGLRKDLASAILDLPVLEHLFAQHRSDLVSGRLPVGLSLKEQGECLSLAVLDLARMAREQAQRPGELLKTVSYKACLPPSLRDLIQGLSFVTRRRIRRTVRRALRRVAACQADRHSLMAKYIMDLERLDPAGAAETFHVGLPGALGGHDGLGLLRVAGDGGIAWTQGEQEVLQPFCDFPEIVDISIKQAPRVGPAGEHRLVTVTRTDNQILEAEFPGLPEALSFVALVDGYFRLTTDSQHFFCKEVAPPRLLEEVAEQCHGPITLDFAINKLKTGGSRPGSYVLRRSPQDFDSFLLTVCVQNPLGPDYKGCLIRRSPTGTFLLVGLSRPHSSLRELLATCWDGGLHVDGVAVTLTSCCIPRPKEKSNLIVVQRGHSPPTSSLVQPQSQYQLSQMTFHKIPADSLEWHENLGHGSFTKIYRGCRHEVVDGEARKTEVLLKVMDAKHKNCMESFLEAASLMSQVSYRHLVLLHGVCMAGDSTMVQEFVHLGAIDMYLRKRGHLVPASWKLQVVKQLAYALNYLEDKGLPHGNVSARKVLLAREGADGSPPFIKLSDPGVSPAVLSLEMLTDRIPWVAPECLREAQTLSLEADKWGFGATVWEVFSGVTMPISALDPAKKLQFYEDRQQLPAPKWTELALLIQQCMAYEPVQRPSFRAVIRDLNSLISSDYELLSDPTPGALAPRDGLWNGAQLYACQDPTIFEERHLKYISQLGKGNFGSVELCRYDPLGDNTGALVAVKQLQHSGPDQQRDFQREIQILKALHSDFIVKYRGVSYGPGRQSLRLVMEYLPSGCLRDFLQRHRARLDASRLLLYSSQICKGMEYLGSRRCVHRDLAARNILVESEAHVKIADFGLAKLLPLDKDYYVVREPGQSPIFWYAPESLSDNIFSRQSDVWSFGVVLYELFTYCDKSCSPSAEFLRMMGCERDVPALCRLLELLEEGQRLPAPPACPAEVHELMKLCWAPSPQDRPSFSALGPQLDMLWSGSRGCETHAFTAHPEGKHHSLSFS

EGFR = EGFR (Homo sapiens, UniProt P00533); experiment: Inhibition of a panel of kinases, in vitro HotSpot kinase assay: EGFR; conditions: D-compounds panel data; 1 μM ATP
Chain of EGFR (P00533 25-1210): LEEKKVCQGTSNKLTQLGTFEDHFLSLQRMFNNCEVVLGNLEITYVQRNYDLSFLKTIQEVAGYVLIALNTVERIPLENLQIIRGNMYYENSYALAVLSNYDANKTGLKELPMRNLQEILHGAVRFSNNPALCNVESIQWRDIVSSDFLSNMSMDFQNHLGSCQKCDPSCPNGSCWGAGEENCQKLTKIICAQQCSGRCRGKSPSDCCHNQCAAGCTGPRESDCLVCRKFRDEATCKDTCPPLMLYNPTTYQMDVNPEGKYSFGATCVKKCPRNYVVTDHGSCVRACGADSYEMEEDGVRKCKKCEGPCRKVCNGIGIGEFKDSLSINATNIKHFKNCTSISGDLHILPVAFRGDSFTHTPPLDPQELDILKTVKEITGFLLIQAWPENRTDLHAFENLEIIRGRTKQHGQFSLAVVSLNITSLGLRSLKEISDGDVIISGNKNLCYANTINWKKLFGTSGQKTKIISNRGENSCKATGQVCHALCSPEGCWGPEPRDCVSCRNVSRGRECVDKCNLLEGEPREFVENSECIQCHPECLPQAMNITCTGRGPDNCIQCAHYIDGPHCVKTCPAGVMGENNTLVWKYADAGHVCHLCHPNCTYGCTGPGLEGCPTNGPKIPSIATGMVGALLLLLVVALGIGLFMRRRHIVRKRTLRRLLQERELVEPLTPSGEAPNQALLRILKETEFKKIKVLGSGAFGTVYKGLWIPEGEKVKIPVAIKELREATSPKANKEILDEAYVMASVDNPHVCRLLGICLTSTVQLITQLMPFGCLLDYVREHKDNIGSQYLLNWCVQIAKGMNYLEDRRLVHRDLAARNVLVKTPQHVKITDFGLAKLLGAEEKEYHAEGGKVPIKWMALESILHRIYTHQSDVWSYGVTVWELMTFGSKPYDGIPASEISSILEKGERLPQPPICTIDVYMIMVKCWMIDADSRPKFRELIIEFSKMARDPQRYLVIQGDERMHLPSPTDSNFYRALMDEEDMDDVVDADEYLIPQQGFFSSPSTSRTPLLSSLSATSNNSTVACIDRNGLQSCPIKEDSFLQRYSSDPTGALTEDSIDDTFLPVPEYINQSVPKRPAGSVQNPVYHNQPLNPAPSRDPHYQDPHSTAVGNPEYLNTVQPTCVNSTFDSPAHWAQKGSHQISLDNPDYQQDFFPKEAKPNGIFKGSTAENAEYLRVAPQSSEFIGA
Experimental: (§1) The degree of inhibition of a panel of kinases is determined using the in vitro HotSpot kinase assay (purified enzymes, ^33P-ATP, an appropriate substrate and 1 μM ATP).

LCK = LCK (Homo sapiens, UniProt P06239); experiment: Inhibition of a panel of kinases, in vitro HotSpot kinase assay: LCK; conditions: D-compounds panel data; 1 μM ATP; read-out: IC50 LCK
Chain of LCK (P06239 whole entry): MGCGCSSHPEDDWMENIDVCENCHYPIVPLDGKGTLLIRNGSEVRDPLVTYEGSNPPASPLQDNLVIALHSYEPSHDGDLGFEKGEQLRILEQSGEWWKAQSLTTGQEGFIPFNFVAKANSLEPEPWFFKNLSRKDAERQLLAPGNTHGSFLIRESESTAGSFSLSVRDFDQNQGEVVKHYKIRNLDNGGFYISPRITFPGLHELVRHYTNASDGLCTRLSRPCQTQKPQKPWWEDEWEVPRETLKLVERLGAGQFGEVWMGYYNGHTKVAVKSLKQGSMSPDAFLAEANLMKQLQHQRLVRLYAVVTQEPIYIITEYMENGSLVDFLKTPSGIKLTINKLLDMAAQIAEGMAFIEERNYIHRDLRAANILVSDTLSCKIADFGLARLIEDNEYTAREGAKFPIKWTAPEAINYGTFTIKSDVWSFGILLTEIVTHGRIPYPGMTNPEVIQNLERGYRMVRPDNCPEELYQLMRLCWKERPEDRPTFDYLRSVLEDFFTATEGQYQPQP

BTK-WT = biological target: T2, BTK-WT (Homo sapiens, UniProt Q06187); experiment: Btk in vitro inhibitory activity (one of Method A TR-FRET, Method B electrophoretic mobility shift, Method C radiometric filter binding); conditions: D-compounds panel data; read-out: IC50 BTK-WT
T2 construct: purified from insect cells as a full-length construct containing an N-terminal 6X-His tag; His6 (N); made in house; host or cells: insect cells (baculovirus Sf21 in Method B)
T2 sequence (Q06187 whole entry): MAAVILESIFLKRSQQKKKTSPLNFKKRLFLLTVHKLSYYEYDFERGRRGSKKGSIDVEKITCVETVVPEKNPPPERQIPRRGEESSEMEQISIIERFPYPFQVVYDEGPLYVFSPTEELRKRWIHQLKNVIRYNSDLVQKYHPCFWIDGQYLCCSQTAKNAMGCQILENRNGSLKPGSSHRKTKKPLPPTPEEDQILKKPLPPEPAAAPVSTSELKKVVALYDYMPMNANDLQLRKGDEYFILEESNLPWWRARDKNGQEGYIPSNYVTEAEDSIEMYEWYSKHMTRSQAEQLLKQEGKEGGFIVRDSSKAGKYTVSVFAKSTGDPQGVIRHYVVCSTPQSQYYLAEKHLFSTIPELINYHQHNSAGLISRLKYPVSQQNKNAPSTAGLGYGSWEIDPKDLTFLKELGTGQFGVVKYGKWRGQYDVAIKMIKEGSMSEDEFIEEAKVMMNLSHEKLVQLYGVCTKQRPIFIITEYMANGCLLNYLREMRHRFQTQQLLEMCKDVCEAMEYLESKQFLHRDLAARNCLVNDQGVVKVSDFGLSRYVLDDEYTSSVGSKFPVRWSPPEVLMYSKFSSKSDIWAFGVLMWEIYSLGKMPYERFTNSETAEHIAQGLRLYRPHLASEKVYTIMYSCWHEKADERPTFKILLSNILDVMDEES

SRC = SRC (Homo sapiens, UniProt P12931); experiment: Inhibition of a panel of kinases, in vitro HotSpot kinase assay: SRC; conditions: D-compounds panel data; 1 μM ATP
Chain of SRC (P12931 whole entry): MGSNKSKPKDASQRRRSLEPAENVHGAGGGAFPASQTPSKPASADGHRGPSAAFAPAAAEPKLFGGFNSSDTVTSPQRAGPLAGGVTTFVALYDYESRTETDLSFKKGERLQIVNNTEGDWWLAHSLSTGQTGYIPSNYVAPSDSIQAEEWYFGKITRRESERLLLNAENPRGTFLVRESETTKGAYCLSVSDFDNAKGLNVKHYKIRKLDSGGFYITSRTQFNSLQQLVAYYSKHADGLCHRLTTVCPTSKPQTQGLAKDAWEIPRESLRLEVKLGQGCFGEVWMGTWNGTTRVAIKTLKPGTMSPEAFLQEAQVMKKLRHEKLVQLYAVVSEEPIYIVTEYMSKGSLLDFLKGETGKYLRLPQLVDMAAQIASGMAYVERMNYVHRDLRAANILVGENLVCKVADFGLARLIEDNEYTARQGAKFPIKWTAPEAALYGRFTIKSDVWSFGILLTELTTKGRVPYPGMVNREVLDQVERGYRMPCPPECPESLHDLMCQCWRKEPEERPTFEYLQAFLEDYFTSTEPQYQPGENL
Experimental: as §1

`C[C@@H]1[C@H](NC(=O)c2ccc(C(F)(F)F)nc2)CCCN1c1cnc(C(N)=O)c(Nc2cnn(C)c2)n1` [Example D-91, 3-[(1-methyl-1H-pyrazol-4-yl)amino]-5-[(2R,3R)-2-methyl-3-[6-(trifluoromethyl)pyridine-3-amido]piperidin-1-yl]pyrazine-2-carboxamide] was tested, and the IC50 (JAK3) was 100 to 1000 nM, the IC50 (EGFR) was 100 to 1000 nM and the IC50 (LCK) was 10 to 100 nM. The IC50 (BTK-WT) was ≤ 10 nM and the IC50 (SRC) was 10 to 100 nM.
In the case of `CN(C)C(=O)N[C@H]1CCCN(c2cnc(C(N)=O)c(Nc3ccc4ncccc4c3)n2)[C@@H]1CO` (racemic) [Example D-64, trans 5-[3-[(dimethylcarbamoyl)amino]-2-(hydroxymethyl)piperidin-1-yl]-3-[(quinolin-6-yl)amino]pyrazine-2-carboxamide], the IC50 (JAK3) is reported as > 10000 nM, the IC50 (EGFR) is reported as > 10000 nM and the IC50 (LCK) is reported as > 10000 nM. The IC50 (BTK-WT) was 1000 to 10000 nM and the IC50 (SRC) was > 10000 nM.
`C[C@@H]1[C@H](N2Cc3cc(Br)ccc3C2=O)CCCN1c1cnc(C(N)=O)c(Nc2cnn(C)c2)n1` [Example D-27, 5-[(2R,3R)-3-(5-bromo-1-oxo-2,3-dihydro-1H-isoindol-2-yl)-2-methylpiperidin-1-yl]-3-[(1-methyl-1H-pyrazol-4-yl)amino]pyrazine-2-carboxamide] showed an IC50 (JAK3) of 100 to 1000 nM, an IC50 (EGFR) of 100 to 1000 nM and an IC50 (LCK) of 100 to 1000 nM. The IC50 (BTK-WT) was ≤ 10 nM and the IC50 (SRC) was 10 to 100 nM.
With `CN(C)C(=O)N1CC[C@@H]2[C@H]1CCCN2c1cnc(C(N)=O)c(Nc2cnn(C)c2)n1` (racemic) [Example D-50, (racemic)-cis-5-[1-(dimethylcarbamoyl)-octahydro-1H-pyrrolo[3,2-b]pyridin-4-yl]-3-[(1-methyl-1H-pyrazol-4-yl)amino]pyrazine-2-carboxamide] the IC50 (JAK3) was 1000 to 10000 nM, the IC50 (EGFR) was > 10000 nM and the IC50 (LCK) was 1000 to 10000 nM. For the same compound, the IC50 (BTK-WT) was 10 to 100 nM and the IC50 (SRC) was 100 to 1000 nM.
With `C[C@@H]1[C@H](N2CCN(C)C2=O)CCCN1c1cnc(C(N)=O)c(Nc2ccc(C3(C)CCN(C4CC4)CC3)cc2)n1` [Example D-38, 3-{[4-(1-cyclopropyl-4-methylpiperidin-4-yl)phenyl]amino}-5-[(2R,3R)-2-methyl-3-(3-methyl-2-oxoimidazolidin-1-yl)piperidin-1-yl]pyrazine-2-carboxamide] the IC50 (JAK3) was 10 to 100 nM, the IC50 (EGFR) was 100 to 1000 nM and the IC50 (LCK) was 10 to 100 nM. The IC50 (BTK-WT) was ≤ 10 nM and the IC50 (SRC) was 10 to 100 nM.
Work on `C[C@@H]1[C@H](NC(=O)c2ccc(C(C)(C)CO)cc2)CCCN1c1cnc(C(N)=O)c(Nc2cnn(C)c2)n1` [Example D-94, 5-[(2R,3R)-3-[4-(1-hydroxy-2-methylpropan-2-yl)benzamido]-2-methylpiperidin-1-yl]-3-[(1-methyl-1H-pyrazol-4-yl)amino]pyrazine-2-carboxamide] yielded an IC50 (JAK3) of 100 to 1000 nM, an IC50 (EGFR) of 1000 to 10000 nM and an IC50 (LCK) of 100 to 1000 nM. The IC50 (BTK-WT) was ≤ 10 nM and the IC50 (SRC) was 10 to 100 nM.
Compound `C[C@@H]1[C@H](NC(=O)N(C)C)CCCN1c1cnc(C(N)=O)c(Nc2cn[nH]c2)n1` [Example D-53, 5-[(2R,3R)-3-[(dimethylcarbamoyl)amino]-2-methylpiperidin-1-yl]-3-[(1H-pyrazol-4-yl)amino]pyrazine-2-carboxamide] has an IC50 (JAK3) of 1000 to 10000 nM, an IC50 (EGFR) of 1000 to 10000 nM and an IC50 (LCK) of 100 to 1000 nM. It also gave an IC50 (BTK-WT) of 10 to 100 nM and an IC50 (SRC) of 100 to 1000 nM.
`C[C@@H]1[C@H](NC(=O)c2ccc(C3CC3)cc2)CCCN1c1cnc(C(N)=O)c(Nc2cnn(CC3CCOCC3)c2)n1` [Example D-319, 5-[(2R,3R)-3-(4-cyclopropylbenzamido)-2-methylpiperidin-1-yl]-3-{[1-(oxan-4-ylmethyl)-1H-pyrazol-4-yl]amino}pyrazine-2-carboxamide] was tested, and the IC50 (JAK3) was > 10000 nM, the IC50 (EGFR) was 1000 to 10000 nM and the IC50 (LCK) was 100 to 1000 nM. For the same compound, the IC50 (BTK-WT) was ≤ 10 nM and the IC50 (SRC) was 10 to 100 nM.
With `C[C@@H]1[C@H](NC(=O)c2ccc(C3CC3)cc2)CCCN1c1cnc(C(N)=O)c(Nc2cnc(N3CCN(C)CC3)nc2)n1` [Example D-318, 5-[(2R,3R)-3-(4-cyclopropylbenzamido)-2-methylpiperidin-1-yl]-3-{[2-(4-methylpiperazin-1-yl)pyrimidin-5-yl]amino}pyrazine-2-carboxamide] the IC50 (JAK3) was > 10000 nM, the IC50 (EGFR) was > 10000 nM and the IC50 (LCK) was 100 to 1000 nM. For the same compound, the IC50 (BTK-WT) was ≤ 10 nM and the IC50 (SRC) was 100 to 1000 nM.
For `C[C@@H]1C[C@H](NC(=O)c2ccc(C3CC3)cc2)CN(c2cnc(C(N)=O)c(Nc3cnn(C)c3)n2)C1` [Example D-32, 5-[(3S,5R)-3-(4-cyclopropylbenzamido)-5-methylpiperidin-1-yl]-3-[(1-methyl-1H-pyrazol-4-yl)amino]pyrazine-2-carboxamide], the IC50 (JAK3) was > 10000 nM, the IC50 (EGFR) was > 10000 nM and the IC50 (LCK) was 1000 to 10000 nM. The IC50 (BTK-WT) was 100 to 1000 nM and the IC50 (SRC) was > 10000 nM.
In the case of `C[C@@H]1[C@H](NC(=O)c2ccc(C(C)(C)N)cc2)CCCN1c1cnc(C(N)=O)c(Nc2cnn(C)c2)n1` [Example D-51, 5-[(2R,3R)-3-[4-(2-aminopropan-2-yl)benzamido]-2-methylpiperidin-1-yl]-3-[(1-methyl-1H-pyrazol-4-yl)amino]pyrazine-2-carboxamide], the IC50 (JAK3) is reported as 100 to 1000 nM, the IC50 (EGFR) is reported as 100 to 1000 nM and the IC50 (LCK) is reported as 10 to 100 nM. For the same compound, the IC50 (BTK-WT) was ≤ 10 nM and the IC50 (SRC) was ≤ 10 nM.
For `C[C@@H]1[C@H](NC(=O)c2ccc(C3CC3)cc2F)CCCN1c1cnc(C(N)=O)c(Nc2ccc(N3CCN(C)CC3)c(F)c2)n1` [Example D-82, 5-[(2R,3R)-3-(4-cyclopropyl-2-fluorobenzamido)-2-methylpiperidin-1-yl]-3-{[3-fluoro-4-(4-methylpiperazin-1-yl)phenyl]amino}pyrazine-2-carboxamide], the IC50 (JAK3) was 1000 to 10000 nM, the IC50 (EGFR) was 100 to 1000 nM and the IC50 (LCK) was 10 to 100 nM. For the same compound, the IC50 (BTK-WT) was ≤ 10 nM and the IC50 (SRC) was 10 to 100 nM.
With `CN(C)C(=O)N[C@H]1CCCN(c2cnc(C(N)=O)c(Nc3ccc(C4(C)CCN(C5CCCC5)CC4)cc3)n2)[C@@H]1CO` [Example D-61, 3-{[4-(1-cyclopentyl-4-methylpiperidin-4-yl)phenyl]amino}-5-[(2S,3S)-3-[(dimethylcarbamoyl)amino]-2-(hydroxymethyl)piperidin-1-yl]pyrazine-2-carboxamide] the IC50 (JAK3) was > 10000 nM, the IC50 (EGFR) was > 10000 nM and the IC50 (LCK) was 1000 to 10000 nM. The IC50 (BTK-WT) was 100 to 1000 nM and the IC50 (SRC) was 1000 to 10000 nM.
Compound `C[C@@H]1[C@H](NC(=O)c2cnc(C3CC3)nc2)CCCN1c1cnc(C(N)=O)c(Nc2cnn(C)c2)n1` [Example D-86, 5-[(2R,3R)-3-(2-cyclopropylpyrimidine-5-amido)-2-methylpiperidin-1-yl]-3-[(1-methyl-1H-pyrazol-4-yl)amino]pyrazine-2-carboxamide] has an IC50 (JAK3) of 100 to 1000 nM, an IC50 (EGFR) of 1000 to 10000 nM and an IC50 (LCK) of 10 to 100 nM. The IC50 (BTK-WT) was ≤ 10 nM and the IC50 (SRC) was 10 to 100 nM.
For `C[C@@H]1[C@H](NC(=O)c2ccc(C3CC3)cc2F)CCCN1c1cnc(C(N)=O)c(Nc2ccc(N3CCOCC3)cc2)n1` [Example D-73, 5-[(2R,3R)-3-(4-cyclopropyl-2-fluorobenzamido)-2-methylpiperidin-1-yl]-3-{[4-(morpholin-4-yl)phenyl]amino}pyrazine-2-carboxamide], the IC50 (JAK3) was > 10000 nM, the IC50 (EGFR) was 1000 to 10000 nM and the IC50 (LCK) was 1000 to 10000 nM. The IC50 (BTK-WT) was ≤ 10 nM and the IC50 (SRC) was 100 to 1000 nM.
`C[C@@H]1[C@H](NC(=O)c2ccc3c(c2)C(C)(C)CO3)CCCN1c1cnc(C(N)=O)c(Nc2cnn(C)c2)n1` [Example D-55, 5-[(2R,3R)-3-(3,3-dimethyl-2,3-dihydro-1-benzofuran-5-amido)-2-methylpiperidin-1-yl]-3-[(1-methyl-1H-pyrazol-4-yl)amino]pyrazine-2-carboxamide] was tested, and the IC50 (JAK3) was > 10000 nM, the IC50 (EGFR) was 1000 to 10000 nM and the IC50 (LCK) was 10 to 100 nM. The IC50 (BTK-WT) was ≤ 10 nM and the IC50 (SRC) was 10 to 100 nM.
